Experimental data from patent US8148578B2, “Fast acting naratriptan composition” (Emisphere Technologies Inc., priority 2008, dated 2012).
Where two headings read alike, the source gives them in different places.

Assays:
[1] = Oral pharmacokinetics of naratriptan in rats, alone or combined with an absorption enhancer carrier; format: in vivo, Sprague-Dawley rats; conditions: Nar 10 mg/kg, carrier 200 mg/kg
Protocol: In the present invention, the delivery system is the pharmaceutical formulations which may be in the form of a liquid or solid. Liquid formulations may be water-based. The absorption enhancer was dissolved in deionized water. 10 N NaOH solution was used to help dissolving acid form carriers. HCl was added to lower pH of the absorption enhancer stock solution if the pH was higher than 7.4. Naratriptan powder was added to the absorption enhancer solution 5 minutes before dosing. The final concentration of drug was 10 mg/ml, and the final concentration of carrier was 200 mg/ml for the study.
Naratriptan is also designated Nar. Naratriptan was administered alone to rates orally as a control. For oral dosing, single solutions were administrated at time 0, in the following manner: (a) each absorption enhancer carrier (200 mg/kg) in combination with Nar (10 mg/kg) was administered orally to rats; and (b) Nar (10 mg/kg) alone was administered orally to rats. Blood samples were collected by retro-orbital bleed under CO2 anesthesia pre-dosing (0 minute), and 5, 15, 30, 40, 50, 60, 120 and 240 minutes after dosing. […] Both, the Nar/2-HPOD and Nar/2-HPHM combination took approximately ½ the time of Naratriptan alone. […] Also the mean Cmax value of the Nar/4-PPED combination was approximately 2-fold higher compared to that obtained following Naratriptan alone.

[2] = cited from earlier work
[3] = Sprague-Dawley, rat, naratriptan in plasma, fasted male rats, single oral dose, n=5

SMILES: CNS(=O)(=O)CCc1ccc2[nH]cc(C3CCN(C)CC3)c2c1 [Naratriptan]
- time of mean peak Naratriptan plasma concentration post-dose ([1]; Example 1, rats, oral): 27 min
- Cmax [1, 3]: 1050 ng/mL
- Tmax [1, 3]: 27 min
- AU Clast ([1]; naratriptan in plasma, fasted male rats, single oral dose, n=5): 62851 ng·min/mL
- time to peak concentrations ([2]; 2.5 mg tablet orally): 2 to 3 h
- Tmax ([2]; during a migraine attack): 180 to 240 min
- oral bioavailability ([2]; naratriptan tablets): about 70%
